Measurements as given in paper PMC5913645, “Methyl phenlactonoates are efficient strigolactone analogs with simple structure” (Journal of Experimental Botany, 2017).

Experiments:
ShHTL7 = target: T1, ShHTL7 (Striga hermonthica, UniProt A0A0M3PNA2); experiment: In vitro hydrolysis assay, ShHTL7; type: biochemical; conditions: 10 µM substrate, 50 µg ml^−1 protein, 37 °C, HPLC
T1 sequence (A0A0M3PNA2 1-271): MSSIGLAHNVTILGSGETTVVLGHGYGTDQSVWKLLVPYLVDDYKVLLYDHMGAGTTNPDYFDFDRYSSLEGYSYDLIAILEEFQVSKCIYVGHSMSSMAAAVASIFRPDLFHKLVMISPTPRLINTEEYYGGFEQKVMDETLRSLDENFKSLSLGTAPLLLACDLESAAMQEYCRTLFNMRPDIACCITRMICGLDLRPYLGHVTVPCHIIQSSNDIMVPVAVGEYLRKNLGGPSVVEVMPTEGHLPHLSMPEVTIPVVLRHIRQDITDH
Excerpt: Striga hermonthica ShHTL7 cDNA was used, GenBank accession KR013127, kindly provided by Tsuyoshi Ota, The University of Tokyo, Japan. Arabidopsis D14 (AtD14) cDNA, GenBank accession AY097402, was synthesized and cloned into pUC57 (GenScript). ShHTL7 and OsD14 cDNAs were amplified by RT-PCR using the primers shown in Supplementary Table S2, digested with BamHI and XhoI, and ligated into BamHI/XhoI-digested pGEX-6P-1 expression vector (GE Healthcare). […] The plasmids were then transformed into E. coli BL21 (DE3) cells. The cells were grown in LB broth containing ampicillin ([…]), incubated at 37 °C until OD600 of 0.6 and induced with 0.1 mM isopropyl-β-D-thiogalactopyranoside at 16 °C for 16 h. Harvested cells were resuspended in lysis buffer: 50 mM Tris–HCl (pH 8.0), 200 mM NaCl, 0.5% Tween-20 and 2 mM dithiothreitol (DTT). After sonication on ice for 10 min, the lysate was centrifuged at 75 000 g for 30 min at 4 °C. Supernatant was allowed to bind to glutathione–sepharose beads (GE Healthcare) for 2 h at 4 °C, washed 3 times with buffer (50 mM Tris-HCl (pH 8.0), 200 mM NaCl, 2 mM DTT), and eluted by cleaving the GST moiety with PreScission™ Protease (GE Healthcare) at 4 °C overnight. Eluted protein was further purified by gel filtration using a HiLoad 16/60 Superdex200 prep grade column (GE Healthcare) on an AKTA prime system (GE Healthcare) in gel filtration buffer (10 mM HEPES pH 7.5, 50 mM KCl and 2 mM DTT). […] Purified protein was concentrated using an Amicon 10K filter unit (Merck Millipore) and stored at −80 °C until use. A similar expression and purification protocol was followed for OsD14 protein, except that OsD14 was eluted from glutathione resins using 0.2 mM reduced glutathione (Sigma-Aldrich) without cutting the GST tag.
The hydrolysis of GR24 and MPs by ShHTL7/OsD14 was performed in a total volume of 0.5 ml of phosphate-buffered saline containing 10 µM of substrate. Purified ShHTL7/OsD14 was added at a concentration of 50 µg ml^−1 and incubated for the indicated time at 37 °C. After adding 1-indanol (10 µl of a 2.5 mg ml^−1 solution in methanol), as internal standard, solutions were filtered and transferred to HPLC vials. […] The column was operated at 30 °C with a flow rate of 0.2 ml min^−1. Eluted compounds were detected using a diode array detector. Amounts of remaining substrates were determined by calculating corresponding peaks, in comparison with an internal standard.

Arabidopsis seedlings = experiment: Arabidopsis primary root length; type: in vivo; conditions: 1.0 μM
Description: Sterilized Arabidopsis seeds were sown on half-strength MS (with 0.5% sucrose+1% agar, 0.5 g l^−1 MES, pH 5.7) plates supplemented with GR24 or MPs (at 1.0 μM). Plates were stored at 4 °C in darkness for 3 d and then vertically grown at 22 °C in a Percival incubator under long day condition (16 h at 22 °C/8 h at 16 °C day/night, 60% relative humidity, 60–70 μmol m^−2 s^−1 white light) for 8 d. For determining the effect on lateral root density and primary root length, at least 30 seedlings were measured using ImageJ software after scanning roots.

Row | Compound | hydrolysis rate by ShHTL7 (rank order) (ShHTL7) | increase in primary root length (Arabidopsis seedlings)
1 | CC1=CC(OC=C2C(=O)OC3c4ccccc4CC23)OC1=O (stereo not shown) [GR24, reference compound] | highest hydrolysis rates with MP1, followed by MP7, GR24, and finally MP3 | –
2 | COC(=O)/C(=C/OC1C=C(C)C(=O)O1)c1ccc([N+](=O)[O-])cc1 (stereo not shown) [MP1, (E)-methyl 3-(4-methyl-5-oxo-2,5-dihydrofuran-2-yloxy)-2-(4-nitrophenyl)acrylate] | highest hydrolysis rates with MP1, followed by MP7, GR24, and finally MP3 | most active compound
3 | COC(=O)/C(=C/OC1C=C(C)C(=O)O1)c1ccccc1 (stereo not shown) [MP3, (E)-methyl 3-(4-methyl-5-oxo-2,5-dihydrofuran-2-yloxy)-2-phenylacrylate] | highest hydrolysis rates with MP1, followed by MP7, GR24, and finally MP3 | weaker activity than GR24 and MP8
4 | COC(=O)/C(=C/OC1C=C(C)C(=O)O1)c1ccc(Cl)cc1 (stereo not shown) [MP7] | highest hydrolysis rates with MP1, followed by MP7, GR24, and finally MP3 | more efficient than GR24
